The target of assay [1] is T1, human NK1-receptor (Homo sapiens, UniProt P25103). Kind of assay: Binding potency of the test substances to NK1-receptors in vitro ([3H]-Substance P displacement). Conditions: human NK1-receptor in CHO cell membranes, average of at least three measurements. The method, then:
1. Determination of the Binding Potency of the Test Substances to NK1-Receptors in Vitro
The affinity of test compounds for NK1-receptors can be determined by measuring the ability of the test compound to displace a radiolabeled ligand from its specific binding site. The tests were performed at Solvay Pharmaceuticals, Weesp, The Netherlands.
Separation of bound radioactivity from free radioactivity was done by filtration through glass fiber filters (Packard GF/B) with several washings with ice-cold buffer solution. Bound radioactivity was measured with a liquid scintillation counter (total binding).
The inhibition constant (Ki) was calculated according to the Cheng-Prusoff equation, and listed as its negative logarithmic value (pKi). The pKi value describes the potency of a test compound to bind to a receptor.

The target in assay [2] is T1, human NK1-receptor. Nature of the assay: Functional cellular test, Ca2+ measurements using FLIPR for NK1 activity. Also noted: expressed in transfected cells; host or cells: CHO fibroblast cells. Type of assay: cell-based. The source says: The NK receptor is coupled to Gq.
All steps were done under sterile conditions.

For assay [3], the target named is T2, human NK2-receptor (Homo sapiens, UniProt P21452).
T2 sequence (P21452 1-398): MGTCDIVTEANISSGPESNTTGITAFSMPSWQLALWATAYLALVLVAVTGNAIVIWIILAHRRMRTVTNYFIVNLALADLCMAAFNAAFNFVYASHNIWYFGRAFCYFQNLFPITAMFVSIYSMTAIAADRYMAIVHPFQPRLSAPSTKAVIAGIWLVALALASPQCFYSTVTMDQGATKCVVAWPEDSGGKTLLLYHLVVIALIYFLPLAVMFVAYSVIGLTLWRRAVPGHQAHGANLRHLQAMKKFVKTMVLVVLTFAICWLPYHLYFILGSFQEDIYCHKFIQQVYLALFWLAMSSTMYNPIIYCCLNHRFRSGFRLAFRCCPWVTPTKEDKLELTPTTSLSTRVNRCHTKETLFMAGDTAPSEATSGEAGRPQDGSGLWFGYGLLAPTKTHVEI
Kind of assay: Functional cellular test, Ca2+ measurements using FLIPR for NK2 activity.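 Note: CHO cells stably expressing the human receptor, loaded with a calcium dye, antagonist inhibition of ligand-evoked intracellular calcium rise read as peak fluorescence change on FLIPR.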
Procedure: Functional Cellular Tests of the NK1-, NK2- and NK3-Antagonism
Functional cellular tests of the antagonistic effect of the compounds of the present invention on the human tachykinin receptors were performed in CHO cells expressing the recombinant human NK1, NK2 or NK3-receptor. In these tests the inhibition of ligand-induced increase in mobilization of intracellular calcium and inhibition of ligand-induced phosphorylation of mitogen activated protein kinase (MAPK) were determined, which can be used as a measure of functional activity of tachykinin-antagonists. Additionally, the antagonistic properties of reference compounds on the different tachykinin receptors were characterized for comparison.
The effects of test compounds were assessed using Chinese hamster ovary (CHO) fibroblast cells, stably expressing cloned human NK1, NK2 or NK3-receptors. The NK receptor is coupled to Gq. The activation of the Gq protein by ligand binding to the receptor leads to a mobilization of intracellular calcium and phosphorylation of MAPK. Both systems were used to determine functional effects of the test compounds.
Ca^2+ Measurements Using FLIPR for NK1 and NK2 Activity
For tests, cells were seeded 24 hours prior to the experiment into black 96-well microplates. The cell density was 2.2×10^4 cells/well. All steps were done under sterile conditions. In order to observe changes in intracellular calcium levels, cells were loaded with a calcium-sensitive dye. This dye (FLUO-4, from Molecular Probes) excites at 488 nm, and emits in the 500 nm to 560 nm range, only if a complex with calcium is formed. For the dye loading the growth-medium was aspirated out of the well without disturbing the confluent cell layer and 100 μl loading medium (HBSS, 4 μM FLUO-4, 0.005% (w/v) pluronic acid, 2.5 mM probenecid, 20 mM HEPES, pH 7.4) was dispensed into each well using an automatic pipettor system (Multidrop, Labsystems). Pluronic acid was added to increase dye solubility and dye uptake into the cells, whereas probenecid, an anion exchange inhibitor, was added to the loading medium to increase dye retention in the cells. The cells were incubated in a 5% CO2 incubator at 37° C. for 40 minutes. After dye loading, the cells were washed three times with wash-buffer (HBSS, 2.5 mM probenecid, 20 mM HEPES, pH 7.4) to reduce basal fluorescence. In the last washing step the buffer was aspirated and replaced with 100 μl washing buffer. […] The FLIPR setup parameters were set to 0.4 sec exposure length, filter 1, 50 μl fluid addition, pipettor height at 125 μl, dispense speed 40 μl/sec without mixing. Maximal fluorescence changes were obtained using the statistic function of the FLIPR software, and data plotted using GraphPad Prism 4. All points were expressed as a percentage inhibition of the control agonist. IC50 values were determined using sigmoidal dose-response curve fitting. Antagonist potencies (pA2) values were calculated using equation: pA2=−log(IC50/(1+[L]/EC50)),

Assay [4] addresses T2, human NK2-receptor. Nature of the assay: Binding potency of the test substances to NK2-receptors in vitro ([3H]-SR 48968 displacement). Also noted: expressed in transfected cells; host or cells: CHO cells (membrane preparation). As to conditions: human NK2-receptor in CHO cell membranes, [3H]-SR 48968 (saredutant); average of at least three measurements; read-out: pKi, binding potency to NK2-receptors (converted). Summed up: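 Membranes from CHO cells stably expressing the receptor were incubated with [3H]-saredutant plus test compound, then filtered and counted by liquid scintillation. Nonspecific binding defined with 0.1 μmol/l unlabeled saredutant. IC50 from displacement converted to Ki via Cheng-Prusoff and reported as pKi, averaged over measurements.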

Assay [5] deals with T3, human NK3 receptor (Homo sapiens, UniProt P29371).
T3 sequence (P29371 1-465): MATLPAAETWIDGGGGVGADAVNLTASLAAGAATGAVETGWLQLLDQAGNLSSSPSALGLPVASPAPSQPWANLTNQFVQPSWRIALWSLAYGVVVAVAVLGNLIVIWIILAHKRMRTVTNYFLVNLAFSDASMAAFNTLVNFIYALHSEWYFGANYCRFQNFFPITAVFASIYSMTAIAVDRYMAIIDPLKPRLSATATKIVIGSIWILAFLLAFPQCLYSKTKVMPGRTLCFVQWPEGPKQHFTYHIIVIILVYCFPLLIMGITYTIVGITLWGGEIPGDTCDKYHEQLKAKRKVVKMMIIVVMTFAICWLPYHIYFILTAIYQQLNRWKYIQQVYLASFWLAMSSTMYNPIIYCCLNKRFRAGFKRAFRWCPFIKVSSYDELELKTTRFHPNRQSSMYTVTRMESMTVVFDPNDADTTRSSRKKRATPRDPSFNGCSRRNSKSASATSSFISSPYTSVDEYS
Kind of assay: Binding potency of the test substances to NK3-receptors in vitro ([3H]-SR 142801 displacement). Also noted: expressed in transfected cells; host or cells: CHO cells (membrane preparation). As to conditions: human NK3-receptor in CHO cell membranes, [3H]-SR 142801 (osanetant); average of at least three measurements; read-out: pKi, binding potency to NK3-receptors (converted). The procedure, abridged: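 [3H]-osanetant displacement on membranes from CHO cells stably expressing the human receptor, with bound ligand separated by filtration and counted by scintillation. Nonspecific binding defined with 1 μmol/l unlabeled osanetant. IC50 converted to Ki by Cheng-Prusoff and reported as pKi, averaged over measurements.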

Assay [6] deals with T3, human NK3 receptor. Kind of assay: Functional cellular test, Ca2+ measurements using aequorin for NK3 activity. The format is cell-based. Also noted: expressed in transfected cells; host or cells: cell line co-expressing mitochondrially targeted apoaequorin (CHO according to b76/b77). Conditions: read-out: pA2 data for NK3 (converted).
Setting [7] is: read-out: pKi, binding potency to NK1-receptors (converted).
The mark [8] stands for this setting: read-out: pA2 data for NK1 (converted).
[9] abbreviates: pKi, binding potency to NK1-receptors.

Where two headings read alike, the source gives them in different places.

T1 sequence (P25103 whole entry): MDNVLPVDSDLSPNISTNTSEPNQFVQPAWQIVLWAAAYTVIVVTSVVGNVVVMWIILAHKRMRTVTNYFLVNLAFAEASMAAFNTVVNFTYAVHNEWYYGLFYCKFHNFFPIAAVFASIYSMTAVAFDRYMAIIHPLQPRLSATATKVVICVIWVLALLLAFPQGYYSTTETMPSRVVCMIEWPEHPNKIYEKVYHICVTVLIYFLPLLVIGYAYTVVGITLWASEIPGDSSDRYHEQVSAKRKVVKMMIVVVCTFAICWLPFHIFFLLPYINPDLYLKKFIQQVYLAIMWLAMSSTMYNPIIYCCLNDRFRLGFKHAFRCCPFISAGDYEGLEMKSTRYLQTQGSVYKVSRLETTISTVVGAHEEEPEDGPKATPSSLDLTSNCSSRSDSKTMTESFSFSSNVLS

`CN(C)C(=O)C1(N2CCCC2)CCN(CCC(CN(C)C(=O)c2cc(C#N)cc3ccccc23)c2ccc(Cl)c(Cl)c2)CC1` (stereo not shown) [compound 98]: the Ki on human NK1-receptor [1] (setting [7]) was 5.01 nM; on human NK2-receptor [4], 5.01 nM; on human NK3 receptor [5], 63.1 nM. The Kb on human NK1-receptor [2] (setting [8]) is 1.58 nM; on human NK2-receptor [3], 0.501 nM.

As to `CN(C[C@@H](CCN1CCC(C(=O)N2CCCC2)(N2CCCC2)CC1)c1ccc(Cl)c(Cl)c1)C(=O)c1cc(C#N)cc2ccccc12` [compound 102, 3-cyano-N-{(2S)-2-(3,4-dichlorophenyl)-4-[4-pyrrolidin-1-yl-4-(pyrrolidin-1-ylcarbonyl)piperidin-1-yl]butyl}-N-methyl-1-naphthamide], the figures for the Ki on human NK1-receptor [1] (setting [7]) and at human NK2-receptor [4] were 2 nM and 5.01 nM, respectively. Moreover, the Kb is 2 nM on human NK1-receptor [2] (setting [8]), 39.8 nM at human NK2-receptor [3] and 39.8 nM at human NK3 receptor [6].

`CCC(=O)N(CC1CC1)C1CCN(CC[C@H](CN(C)C(=O)c2ccccc2)c2ccc(Cl)c(Cl)c2)CC1` [compound 105, N-[(2S)-4-{4-[(cyclopropylmethyl)(Propionyl)-amino]piperidin-1-yl}-2-(3,4-dichlorophenyl)butyl]-N-methylbenzamide]: the Ki is 25.1 nM at human NK1-receptor [1] (setting [7]) and 2 nM at human NK2-receptor [4]. Moreover, the values for the Kb at human NK1-receptor [2] (setting [8]), on human NK2-receptor [3] and at human NK3 receptor [6] were 31.6 nM, 0.0794 nM and 100 nM, respectively.

Turning to `CN(C)C(=O)C1(N2CCCCC2)CCN(CCC(CN(C)C(=O)c2cc(Cl)ccc2F)c2ccc(Cl)c(Cl)c2)CC1` (stereo not shown) [compound 10], the Ki is 79.4 nM on human NK1-receptor [1] (setting [7]), 1.26 nM at human NK2-receptor [4] and 10 nM at human NK3 receptor [5]. The Kb on human NK1-receptor [2] (setting [8]) was 79.4 nM; on human NK2-receptor [3], 3.98 nM; on human NK3 receptor [6] it was 5.01 nM.

Take `CN(C)C(=O)C1(N2CCCCC2)CCN(CCC(CN(C)C(=O)C2CCCC2)c2ccc(Cl)c(Cl)c2)CC1` (stereo not shown) [compound 23]: the Kb at human NK1-receptor [2] (setting [8]) was 1.26 nM; at human NK2-receptor [3] it was 1.26 nM; on human NK3 receptor [6] it was 12.6 nM. Moreover, the Ki on human NK2-receptor [4] is 2 nM; on human NK3 receptor [5], 10 nM.

Regarding `CCC(=O)N(C1CCCCC1)C1CCN(CC[C@H](CN(C)C(=O)c2ccccc2)c2ccc(Cl)c(Cl)c2)CC1` [compound 116, N-[(2S)-4-{4-[cyclohexyl(propionyl)amino]piperidin-1-yl}-2-(3,4-dichlorophenyl)butyl]-N-methyl-benzamide], the results for the Ki at human NK1-receptor [1] (setting [9]) and on human NK2-receptor [4] were 79.4 nM and 5.01 nM, respectively. In addition, the results for the Kb on human NK1-receptor [2] and on human NK2-receptor [3] were 31.6 nM and 1.26 nM, respectively.

`CCCCN(C(=O)CC)C1CCN(CC[C@H](CN(C)C(=O)c2ccccc2)c2ccc(Cl)c(Cl)c2)CC1` [compound 108, N-[(2S)-4-{4-[butyl(propionyl)amino]piperidin-1-yl}-2-(3,4-dichlorophenyl)butyl]-N-methylbenzamide]: the Ki on human NK1-receptor [1] (setting [9]) is 12.6 nM; on human NK2-receptor [4], 3.98 nM. Moreover, the Kb was 31.6 nM at human NK1-receptor [2] and 1 nM at human NK2-receptor [3].

On to `CN(C)C(=O)C1(N2CCCC2)CCN(CC[C@H](CN(C)C(=O)c2ccccc2)c2ccc(Cl)c(Cl)c2)CC1` [compound 99, 1-[(3S)-4-[benzoyl(methyl)amino]-3-(3,4-dichlorophenyl)-butyl]-N,N-dimethyl-4-pyrrolidin-1-ylpiperidine-4-carboxamide], for which the Kb on human NK1-receptor [2] (setting [8]) is 50.1 nM; on human NK2-receptor [3] it was 0.251 nM. In addition, the results for the Ki on human NK2-receptor [4] and at human NK3 receptor [5] were 0.631 nM and 63.1 nM, respectively.

Take `CN(C[C@@H](CCN1CCC(C(=O)N2CCCC2)(N2CCCC2)CC1)c1ccc(Cl)c(Cl)c1)C(=O)c1ccccc1` [compound 103, N-{(2S)-2-(3,4-dichlorophenyl)-4-[4-pyrrolidin-1-yl-4-(pyrrolidin-1-ylcarbonyl)piperidin-1-yl]butyl}-N-methylbenzamide]: the Ki at human NK1-receptor [1] (setting [7]) was 50.1 nM; at human NK2-receptor [4], 2 nM. The values for the Kb at human NK1-receptor [2] (setting [8]), at human NK2-receptor [3] and at human NK3 receptor [6] were 31.6 nM, 2 nM and 50.1 nM, respectively.

Regarding `CN(C[C@@H](CCN1CCC(C(=O)N2CCCCC2)(N2CCCCC2)CC1)c1ccc(Cl)c(Cl)c1)C(=O)c1ccccc1` [compound 104, N-{(2S)-2-(3,4-dichlorophenyl)-4-[4′-(piperidin-1-ylcarbonyl)-1,4′-bipiperidin-1′-yl]butyl}-N-methylbenzamide], the Kb was 20 nM on human NK1-receptor [2] (setting [8]), 15.8 nM on human NK2-receptor [3] and 15.8 nM at human NK3 receptor [6]. The Ki was 2 nM at human NK2-receptor [4] and 20 nM on human NK3 receptor [5].

`CNC(=O)C1(N2CCCCC2)CCN(CCC(CN(C)C(=O)c2cc(C#N)cc3ccccc23)c2ccc(Cl)c(Cl)c2)CC1` (stereo not shown) [compound 93]: the values for the Ki on human NK1-receptor [1] (setting [7]) and at human NK2-receptor [4] were 7.94 nM and 15.8 nM, respectively. Further, the Kb at human NK1-receptor [2] (setting [8]) is 7.94 nM; at human NK2-receptor [3], 3.98 nM.

The values above are taken from US20070219214A1, “Dual NK2/NK3-antagonists, pharmaceutical compositions comprising them, and processes for their preparation” (Solvay pharmaceuticals GmbH, priority 2006, published 2007).
